Data reported in patent publication US10526660B2, “Methods for evaluating and treating Waldenstrom's macroglobulinemia” (Dana-Farber Cancer Institute, Inc., priority 2013, dated 2020).
Read-outs that look alike come from different tables or passages of the source.

How the values were obtained:
[1] = system: phospho-AKT, phospho-ERK and phospho-BTK; test: SDF-1a triggered AKT, ERK and BTK signaling (phosphoflow, immunoblotting) in transduced BCWM.1 cells; format: cell-based
BCWM.1 WM cells [2] = test: Annexin V staining (apoptosis) of CXCR4 frameshift/nonsense mutant expressing BCWM.1 cells, Example 6; format: cell-based; settings: CXCR4^T311fs and CXCR4^S344fs cells; for SDF-1a rescue of ibrutinib or idelalisib treated cells: MK-2206 0.5 uM, AS-703026 0.25 uM, 18 hours
Source text: CXCR4^WT, CXCR4^FS, CXCR4^S338X cDNAs were subcloned into plenti-IRES-GFP vector, and transduced using a lentiviral based strategy into BCWM.1 WM cells as before (Cao et al, 2014; Yang et al, 2013). Frameshift mutations proximal and distal to CXCR4^S338X that were identified in WM patients by WGS were studied (FIG. 11). […] The nonsense mutation CXCR4^S338X resulted from C>G change at 136872485 (Hunter et al, 2013). Five days after transduction, GFP positive cells were sorted and used for functional studies. Surface CXCR4 expression was determined at baseline, and following stimulation for 30 minutes with SDF-1a (10-100 nM) as before (Cao et al, 2014). Phosphoflow experiments were performed using conjugated antibodies to phospho-ERK1/2 (T^202/Y^204) and phospho-AKT(S^473) (BD Phosflow) as previously described (Cao et al, 2014). […] Survival studies related to AKT and ERK were performed in the presence or absence AKT (MK-2206, 0.5 uM) or MEK (AS-703026, 0.25 uM) specific inhibitors (Selleck Chemicals, Houston Tex.) as previously reported (Cao et al, 2014).

CXCR4^S338X MWCL-1 cells = test: PARP and caspase 3 cleavage by immunoblotting (apoptosis), MWCL-1; format: cell-based; settings: for level of SDF-1a mediated rescue from PARP and caspase 3 cleavage: agents at EC50 dose ranges, 6 hours, SDF-1a 20 nM
CXCR4^S338X BCWM.1 cells = test: PARP and caspase 3 cleavage by immunoblotting (apoptosis), BCWM.1; format: cell-based; settings: for level of SDF-1a mediated rescue from PARP and caspase 3 cleavage: agents at EC50 dose ranges, 6 hours, SDF-1a 20 nM
BCWM.1 and MWCL-1 cells [3] = test: Annexin V staining (apoptosis), Example 5; format: cell-based; settings: 18 hours
pAKT and pERK = test: Immunohistochemical staining for pAKT and pERK in bone marrow of WM patients on ibrutinib; format: in vivo, human
CXCR4 = test: Cell surface CXCR4 expression by flow cytometry in transfected WM cells; format: cell-based
Procedure: (§1) Five days after transduction, GFP positive cells were sorted and used for functional studies. Surface expression of CXCR4 was determined by flow cytometric analysis using a PE-conjugated anti-CXCR4 monoclonal antibody (BD Biosciences, San Jose Calif.). Transduced cell lines were stimulated with or without SDF-1a (10-100 nM), and cell surface expression of CXCR4 determined on CXCR4^WT and S338X transduced cells. CXCR4 expression levels were calculated as: [(receptor geometric mean fluorescence intensity [MFI] of treated cells-MFI of isotype IgG control)/(receptor geometric MFI of unstimulated cells-MFI of isotype IgG control)]×100.

BCWM.1 WM cells [4] = settings: CXCR4 S338X transduced cells; 30 nM AMD3100; p<0.005
Source text: Five days after transduction, GFP positive cells were sorted and used for functional studies.

BCWM.1 and MWCL-1 cells [5] = settings: CXCR4^S338X expressing cells; co-treatment ibrutinib and AMD3100 30 uM
Procedure: as §1

WHIM patients = WHIM patients treated daily for 6 months; cited from earlier work
[6] = SDF-1a cultured CXCR4^S338X BCWM.1 cells, AS-703026 0.25 uM, AZD-6244 0.5 uM, U0126 5.0 uM
[7] = CXCR4^WT and CXCR4^S338X expressing BCWM.1 cells, pre-treatment 2 hours, AMD3100 30 uM or pertussis toxin 500 ng, SDF-1a 20 nM
[8] = CXCR4^S338X BCWM.1 and MWCL-1 cells

In the case of `NC1(c2ccc(-c3nc4ccn5c(=O)[nH]nc5c4cc3-c3ccccc3)cc2)CCC1` [MK-2206], the “inhibitory activity by western blot analysis for pAKT (S473)” value ([1]; SDF-1a cultured CXCR4^S338X BCWM.1 cells, 0.5 uM) is reported as “confirmed” and the “SDF-1a rescue of ibrutinib or idelalisib treated cells” value (BCWM.1 WM cells [2]) is reported as “attenuated SDF-1a rescue”.
With `Nc1nc(F)nc2c1ncn2[C@@H]1O[C@H](CO)[C@@H](O)[C@@H]1O` [fludarabine] the “level of SDF-1a mediated rescue from PARP and caspase 3 cleavage” value (from here on “level of SDF-1a mediated rescue”) (CXCR4^S338X MWCL-1 cells) was “lesser levels of rescue” and the “level of SDF-1a mediated rescue” value (CXCR4^S338X BCWM.1 cells) was “moderate”.
With `Cn1c(CCCC(=O)O)nc2cc(N(CCCl)CCCl)ccc21` [bendamustine] the “level of SDF-1a mediated rescue” value (CXCR4^S338X MWCL-1 cells) was “little to no SDF-1a rescue” and the “level of SDF-1a mediated rescue” value (CXCR4^S338X BCWM.1 cells) was “moderate”.
With `N#CC(=C(/N)Sc1ccccc1N)/C(C#N)=C(\N)Sc1ccccc1N` [U0126] the “inhibitory activity by western blot analysis for pERK (T202/Y204)” value (“inhibitory activity … (T202/Y204)” below) [1] was “confirmed”.
For `Cn1cnc2c(F)c(Nc3ccc(Br)cc3Cl)c(C(=O)NOCCO)cc21` [AZD-6244], the “inhibitory activity … (T202/Y204)” value [1, 6] was “confirmed”.
For `CC(C)C[C@H](NC(=O)[C@H](Cc1ccccc1)NC(=O)c1cnccn1)B(O)O` [bortezomib], the “level of SDF-1a mediated rescue” value (CXCR4^S338X MWCL-1 cells) was “lesser levels of rescue” and the “level of SDF-1a mediated rescue” value (CXCR4^S338X BCWM.1 cells) was “moderate”.
For `C=CC(=O)N1CCC[C@@H](n2nc(-c3ccc(Oc4ccccc4)cc3)c3c(N)ncnc32)C1` [ibrutinib, 1-[(3R)-3-[4-amino-3-(4-phenoxyphenyl)pyrazolo[3,4-d]pyrimidin-1-yl]piperidin-1-yl]prop-2-en-1-one], the BTK signaling [1] was “blocked BTK signaling”, the “SDF-1a triggered AKT and ERK activation” value [1] was “attenuated” and the “SDF-1a triggered AKT and ERK signaling” value [1] was “did not show attenuation”. The “Annexin V staining: SDF-1a effect on ibrutinib mediated apoptotic changes” value (BCWM.1 and MWCL-1 cells [3]; ibrutinib plus SDF-1a) was “rescue of ibrutinib mediated apoptotic changes by SDF-1a”, the “pAKT staining in bone marrow on continuous ibrutinib therapy” value (pAKT and pERK; CXCR4^WHIM patients, 6 months) was “remained robust without any changes from baseline” and the “pAKT staining in bone marrow on continuous ibrutinib therapy” value (pAKT and pERK; CXCR4^WT patients) was “marginal pAKT staining”. For the same molecule, the “pERK staining in bone marrow despite ibrutinib therapy” value (pAKT and pERK; all patients, regardless of CXCR4 mutation status) was “low levels of pERK staining”, the “cell surface CXCR4 expression following ibrutinib treatment” value (CXCR4; CXCR4^WT or CXCR4^S338X expressing WM cells, 0.5, 1, 2, and 6 hours) was “little or no significant changes” and the “SDF-1a related changes in cell surface CXCR4 expression” value (CXCR4; vector only, CXCR4^WT and CXCR4^S338X transfected WM cells, addition of ibrutinib) was “did not affect”.
In the case of `O=C(NC[C@H](O)CO)c1ccncc1Nc1ccc(I)cc1F` [AS-703026], the “inhibitory activity … (T202/Y204)” value [1, 6] is reported as “confirmed” and the “SDF-1a rescue of ibrutinib or idelalisib treated cells” value (BCWM.1 WM cells [2]) is reported as “attenuated SDF-1a rescue”.
For AZD-5363, the “inhibitory effect on AKT (phospho-activity of downstream targets GKS3β and pS6)” value ([1]; CXCR4^S338X BCWM.1 cells, 0.5 uM) was “confirmed by inhibition of the phospho-activity”.
In the case of `c1cc(CN2CCCNCCNCCCNCC2)ccc1CN1CCCNCCNCCCNCC1` [AMD3100], the “SDF-1a triggered AKT and ERK activation” value [1, 7] is reported as “blocked both AKT and ERK activation”, the “Annexin V staining: effect of adding AMD3100 to cells treated with ibrutinib and SDF-1a” value (BCWM.1 and MWCL-1 cells [3]) is reported as “restoration of apoptotic changes” and the “Annexin V studies: effect of AMD3100 on SDF-1a rescue of idelalisib treated cells” value (BCWM.1 and MWCL-1 cells [3]; [8]) is reported as “reversal of rescue”. The “block of CXCL12 rescue from ibrutinib growth effect” value (BCWM.1 WM cells [4]) was “rescue could be blocked”, the “effect of concurrent CXCR4 antagonist on ibrutinib apoptosis in SDF-1a exposed cells” value (BCWM.1 WM cells [2]; CXCR4^S338X, plerixafor 30 uM) was “restored the pro-apoptotic effects of ibrutinib” and the “reversal of SDF-1a rescue by co-treatment with AMD3100” value (CXCR4^S338X MWCL-1 cells; idelalisib, fludarabine and bortezomib treated cells, AMD3100 30 uM) was “reversal of SDF1-a rescue”. The “reversal of SDF-1a rescue from ibrutinib induced apoptosis” value (BCWM.1 and MWCL-1 cells [5]) was “could be reversed”, the “reversal of SDF-1a mediated rescue by co-treatment with AMD3100” value (CXCR4^S338X BCWM.1 cells; all agents (bendamustine, fludarabine, bortezomib, idelalisib), AMD3100 30 uM) was “reversal of rescue” and the myelokathexis related leukopenia (WHIM patients) was “reversed myelokathexis related leukopenia”.
For `CC[C@H](Nc1ncnc2[nH]cnc12)c1nc2cccc(F)c2c(=O)n1-c1ccccc1` [idelalisib], the “Annexin V studies: SDF-1a rescue” value (BCWM.1 and MWCL-1 cells [3]; [8]) was “pronounced rescue by SDF-1a”, the “level of SDF-1a mediated rescue” value (CXCR4^S338X MWCL-1 cells) was “moderate level of rescue” and the “level of SDF-1a mediated rescue” value (CXCR4^S338X BCWM.1 cells) was “strong”.
With pertussis toxin the “SDF-1a triggered AKT and ERK activation” value [1, 7] was “blocked both AKT and ERK activation”.
